Source: PubChem BioAssay (NCI)
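Step 1: Grow cells in 96-well plates. Step 2: Expose to compound for 48 hours at 5 concentrations. Step 3: Interpolate endpoints linearly; if unreached, use highest concentration. TGI marks complete inhibition of growth.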

Legend:
Assay in all cases: NCI anticancer screen, dose series, 48 h
ACHN renal = system: ACHN renal
HS 578T breast = system: HS 578T breast
LOX IMVI melanoma = system: LOX IMVI melanoma
NCI/ADR-RES ovarian = system: NCI/ADR-RES ovarian
CCRF-CEM leukemia = system: CCRF-CEM leukemia
HCT-116 colon = system: HCT-116 colon
OVCAR-5 ovarian = system: OVCAR-5 ovarian
HOP-62 NSCLC = system: HOP-62 NSCLC
UO-31 renal = system: UO-31 renal
NCI-H460 lung = system: NCI-H460 lung
SNB-19 CNS = system: SNB-19 CNS
SK-MEL-5 melanoma = system: SK-MEL-5 melanoma
KM12 colon = system: KM12 colon
MOLT-4 leukemia = system: MOLT-4 leukemia
MDA-N = system: MDA-N
SK-MEL-2 melanoma = system: SK-MEL-2 melanoma
M14 melanoma = system: M14 melanoma
K-562 leukemia = system: K-562 leukemia

| SMILES | TGI (ACHN renal) | TGI (HS 578T breast) | TGI (LOX IMVI melanoma) | TGI (NCI/ADR-RES ovarian) | TGI (CCRF-CEM leukemia) | TGI (HCT-116 colon) | TGI (OVCAR-5 ovarian) | TGI (HOP-62 NSCLC) | TGI (UO-31 renal) | TGI (NCI-H460 lung) | TGI (SNB-19 CNS) | TGI (SK-MEL-5 melanoma) | TGI (KM12 colon) | TGI (MOLT-4 leukemia) | TGI (MDA-N) | TGI (SK-MEL-2 melanoma) | TGI (M14 melanoma) | TGI (K-562 leukemia) |
| --- | --- | --- | --- | --- | --- | --- | --- | --- | --- | --- | --- | --- | --- | --- | --- | --- | --- | --- |
| COC(=O)[C@@H]1CN(C(=O)CCc2ccccc2)C(=O)N1C(=O)OCc1ccccc1 | > 100 µM | > 100 µM | > 100 µM | > 100 µM | > 100 µM | > 100 µM | > 100 µM | > 100 µM | > 100 µM | > 100 µM | > 100 µM | > 100 µM | > 100 µM | > 100 µM | > 100 µM | > 100 µM | > 100 µM | > 100 µM |
| CC12Nc3ccccc3N1C(=O)c1ccccc12 (centres undefined) | > 100 µM | > 100 µM | > 100 µM | > 100 µM | > 100 µM | > 100 µM | > 100 µM | > 100 µM | > 100 µM | > 100 µM | > 100 µM | > 100 µM | > 100 µM | > 100 µM | > 100 µM | > 100 µM | > 100 µM | > 100 µM |
| Cc1cc(C)c(C2=NOC(c3ccccc3)(c3cc(=O)n(-c4ccccc4)s3)O2)c(C)c1 (centres undefined) | 52.2 µM | > 100 µM | 30.7 µM | 68.1 µM | > 100 µM | > 100 µM | 40.9 µM | > 100 µM | 47.1 µM | > 100 µM | > 100 µM | > 100 µM | > 100 µM | > 100 µM | > 100 µM | 89.5 µM | 76.8 µM | > 100 µM |
| O=C1C2CC=CCC2C(=O)N1n1c(-c2ccccc2)n[nH]c1=O (centres undefined) | > 100 µM | > 100 µM | > 100 µM | > 100 µM | > 100 µM | > 100 µM | > 100 µM | > 100 µM | > 100 µM | > 100 µM | > 100 µM | > 100 µM | > 100 µM | > 100 µM | > 100 µM | > 100 µM | > 100 µM | > 100 µM |
| CC1C(c2ccccc2)OP(=O)(OC(C#N)c2ccccc2)N1C (centres undefined) | > 100 µM | > 100 µM | > 100 µM | > 100 µM | > 100 µM | > 100 µM | > 100 µM | > 100 µM | > 100 µM | > 100 µM | > 100 µM | > 100 µM | > 100 µM | > 100 µM | > 100 µM | > 100 µM | > 100 µM | > 100 µM |
| COc1cc(/C=C2/CCS(=O)(=O)c3ccc(C)cc3C2=O)cc(OC)c1OC | 14.2 µM | > 35.9 µM | 6.4 µM | > 28.6 µM | > 100 µM | 11.2 µM | 25.4 µM | 23.1 µM | 23.4 µM | 13.5 µM | > 34.8 µM | > 38.3 µM | > 41.2 µM | > 100 µM | > 33.3 µM | 99.2 µM | 18.9 µM | 4.06 µM |
| [N-]=[N+]=Nc1c(-c2ccccc2)c(Cl)nc2ccccc12 | > 100 µM | > 100 µM | 43.6 µM | > 100 µM | > 100 µM | > 100 µM | > 100 µM | > 100 µM | > 100 µM | > 100 µM | > 100 µM | 34.5 µM | 45.2 µM | > 100 µM | > 100 µM | > 100 µM | > 100 µM | > 100 µM |
| CCC1C(c2cc(OC)c(OC)c(OC)c2)c2cc3c(cc2OC1N1CCCC1)OCO3 (centres undefined) | 26.6 µM | 14.1 µM | 22 µM | 7.03 µM | 11.9 µM | 11.5 µM | 57.4 µM | 15.9 µM | 23.1 µM | 12.4 µM | 24 µM | 12.5 µM | 22 µM | 22.8 µM | 0.795 µM | 13 µM | 26.6 µM | 8.62 µM |
